We go through 5 compounds from patent publication EP4617278A1, “NUCLEOTIDE ANALOG, AND COMPOSITION AND USE THEREOF” (priority 2022, dated 2024).

In general, EC50 refers to the concentration needed to bring the measured effect to its halfway point.

The assay has as its system SARS-CoV-2 replicon. The assay is classed as cell-based. Conditions: read-out: SARS-CoV-2 Replicon (Huh-7cell) EC50. (Replicon systems follow genome replication, usually without infectious particles.)

Structures are written as SMILES.

`CC(C)C(=O)O[C@H]1[C@@H](OC(=O)C(C)C)[C@](C#N)(c2ccc3c(N)ncnn23)O[C@@H]1COP(=O)(OCCSC(=O)C(C)(C)C)OCCSC(=O)C(C)(C)C` [Compound 30, (2R,3R,4R,5R)-2-(4-aminopyrrolo[2,1-f][1,2,4]triazin-7-yl)-5-((((bis(2-(pivaloylthio)ethoxy))phosphoryl)oxy)methyl)-2-cyanotetrahydrofuran-3,4-diyl bis(2-methylpropionate)]: the EC50 is less than 5 nM.
For `CC(=O)OCO[P@](=O)(OC[C@H]1O[C@@](C#N)(c2ccc3c(N)ncnn23)[C@H](OC(=O)C(C)C)[C@@H]1OC(=O)C(C)C)Oc1ccc(C(C)(C)C)cc1` [Compound 43b, (2R,3R,4R,5R)-2-(4-aminopyrrolo[2,1-f][1,2,4]triazin-7-yl)-5-(((((R)-acetoxylmethoxy)(4-tert-butylphenoxy)phosphoryl)oxy)methyl)-2-cyanotetrahydrofuran-3,4-diyl bis(2-methylpropionate)] the value was 5 to 10 nM; for `CC(C)C(=O)O[C@H]1[C@@H](OC(=O)C(C)C)[C@](C#N)(c2ccc3c(N)ncnn23)O[C@@H]1COP(=O)(OCOC(=O)C(C)(C)C)OCOC(=O)C(C)(C)C` [Compound 29, (2R,3R,4R,5R)-2-(4-aminopyrrolo[2,1-f][1,2,4]triazin-7-yl)-5-((((bis(((tert-butylcarbonyl)oxy)methoxy))phosphoryl)oxy)methyl)-2-cyanotetrahydrofuran-3,4-diyl bis(2-methylpropionate)], 10 to 50 nM; for `CCC(=O)O[C@H]1[C@@H](OC(=O)CC)[C@](C#N)(c2ccc3c(N)ncnn23)O[C@@H]1CO[P@](=O)(N[C@@H](C)C(=O)OC(C)C)OCOC(=O)OC(C)C` [Compound 2a, (2R,3R,4R,5R)-2-(4-aminopyrrolo[2,1-f][1,2,4]triazin-7-yl)-2-cyano-5-((((R)-(((S)-1-isopropoxy-1-oxopropan-2-yl)amino)(((isopropoxycarbonyl)oxy)methoxy)phosphoryl)oxy)methyl)tetrahydrofuran-3,4-diyl dipropionate], 5 to 10 nM.
The figure for `CC(=O)O[C@H]1[C@@H](OC(C)=O)[C@](C#N)(c2ccc3c(N)ncnn23)O[C@@H]1CO[P@@](=O)(OCOC(=O)OC(C)C)Oc1ccc(C(C)(C)C)cc1` [Compound 22b, ((2R,3R,4R,5R)-2-(4-aminopyrrolo[2,1-f][1,2,4]triazin-7-yl)-5-((((R)-(4-tert-butylphenoxy)(((isopropoxycarbonyl)oxy)methoxy)phosphoryl)oxy)methyl)-2-cyanotetrahydrofuran-3,4-diyl diacetate] is 5 to 10 nM.
